Measurements published in patent publication US20140260103A1, “Methods of Making Solid Stick Antiperspirant Compositions” (The Procter & Gamble Company, priority 2013, published 2014).

Assay: Hygroscopicity: moisture pick up of antiperspirant active in controlled relative humidity
Type: physicochemical
Conditions: at 86% RH, 5 days, 20° C.
Protocol: One way to evaluate the hygroscopic nature of an antiperspirant active is to determine the equilibrium moisture pick up of the active after 5 days in a controlled relative humidity environment. Specific humidity chambers can be created placing saturated salt solutions in desiccators at a specific temperature. Different salts are used to create different humidities, for example potassium chloride can be used to make an 86% relative humidity (RH) environment at 20° C. In general there is an increase in moisture pick up as humidity is increased for the antiperspirant actives shown, however there are clear differences in slope and amount of moisture pick up at high humidity. Materials with higher slope and larger increases at high humidity (i.e. 86% RH) are considered to be more hygroscopic. The aluminum zirconium trichlorohydrate active (metal to chloride ratio=1.6) from Inventive Example 1 is the least hygroscopic (28% moisture pick up at 86% RH) with the aluminum zirconium tetrachlorohydrate active (metal to chloride ratio=1.2) being substantially more hygroscopic (40% moisture pick up at 86% RH). […] This may explain the substantial difference observed in the amount of sweat measured between Inventive Examples 1 and 2. […]

Substance	moisture pick up (hygroscopicity) [%]
aluminum zirconium tetrachlorohydrate	40
aluminum zirconium trichlorohydrate	28
